Measurements from US20210115494A1, “Improved method for measurement of microbial biomass” (Mycometer A/S, priority 2018, published 2021).

Tests used:
Type in all cases: biochemical
[1] = tested on: NAHA activity from Penicillium commune; assay: NAHA activity assay, Penicillium commune
Method: (§1) In order to determine NAHA activity in different samples, the technology in WO 98/033934 was employed: A sample containing a dried or freeze dried organism is added to a buffer solution containing 4-Methylumbelliferyl N-acetyl-β-D-glucosaminide in a concentration of 20 μM. The reaction-time is varied depending on the ambient temperature and according to a reaction-time/temperature data sheet previously developed for fungal NAHA activity at various temperatures, and is 30 minutes at 23° C. The resulting fluorescence formed during the reaction time is monitored in a calibrated fluorometer.
(§2) Experiments analogous to those in example 1 were carried out, but instead of using non-specific inhibitors, the effect of different concentrations of DNJNAc on the NAHA activity in various biomass containing samples was investigated.

[2] = tested on: NAHA activity from Rhizopus stolonifer; assay: NAHA activity assay, Rhizopus stolonifer
Method: as §1, §2

[3] = tested on: NAHA activity from Fusarium culmorum; assay: NAHA activity assay, Fusarium culmorum
Method: as §1
(§3) Experiments were conducted where varying concentrations of AgNO3 was added to an analysis substrate. Furthermore, the experiments where performed on dried or freeze dried materials where both intact and fragmented cells are to be expected to be present.
as §2

[4] = tested on: NAHA activity from Cladosporium sphaerospermum; assay: NAHA activity assay, Cladosporium sphaerospermum; conditions: Chladosporium sphaerosperm
Method: as §1, §3, §2

SMILES: CC(=O)N[C@H]1CN[C@H](CO)[C@@H](O)[C@@H]1O [DNJNAc, 2-Acetamido-1,2-dideoxynojirimycin]
- NAHA activity, 0 μM DNJNAc = 100% ([1]; DNJNAc 24.5 μM): 76%
- NAHA activity, 0 μM DNJNAc = 100% ([1]; DNJNAc 49 μM): 62%
- NAHA activity, 0 μM DNJNAc = 100% ([1]; DNJNAc 98 μM): 45%
- NAHA activity, 0 μM DNJNAc = 100% ([1]; DNJNAc 196 μM): 22%
- NAHA activity, 0 μM DNJNAc = 100% ([2]; DNJNAc 24.5 μM): 46%
- NAHA activity, 0 μM DNJNAc = 100% ([2]; DNJNAc 49 μM): 32%
- NAHA activity, 0 μM DNJNAc = 100% ([2]; DNJNAc 98 μM): 23%
- NAHA activity, 0 μM DNJNAc = 100% ([2]; DNJNAc 196 μM): 18%
- NAHA activity, 0 μM DNJNAc = 100% ([3]; DNJNAc 24.5 μM): 85%
- NAHA activity, 0 μM DNJNAc = 100% ([3]; DNJNAc 49 μM): 82%
- NAHA activity, 0 μM DNJNAc = 100% ([3]; DNJNAc 98 μM): 98%
- NAHA activity, 0 μM DNJNAc = 100% ([3]; DNJNAc 196 μM): 95%
- NAHA activity, 0 μM DNJNAc = 100% ([4]; DNJNAc 24.5 μM): 43%
- NAHA activity, 0 μM DNJNAc = 100% ([4]; DNJNAc 49 μM): 32%
- NAHA activity, 0 μM DNJNAc = 100% ([4]; DNJNAc 98 μM): 49%
- NAHA activity, 0 μM DNJNAc = 100% ([4]; DNJNAc 196 μM): 21%
